Values of other authors in publication PMC12332667, “Role of Structural Modifications in Peptidomimetic Compounds as Potential Antimicrobial Agents against Staphylococcus aureus and Streptococcus pyogenes: Balancing Bioavailability, Safety, and Antimicrobial Activity” (ACS Omega, 2025).
Like-named read-outs stand apart in the source and are kept apart here.

Details: cited from earlier work

| SMILES | VD values (in vivo) [log L/kg] | VD values (reference number not given, probably ref 84, 85) [log L/kg] |
| --- | --- | --- |
| CNC(C)C1CCC(N)C(OC2C(N)CC(N)C(OC3OCC(C)(O)C(NC)C3O)C2O)O1 (centres unmarked) [gentamicin] | −0.699 to −0.432 |  |
| CN[C@H](CC(C)C)C(=O)N[C@H]1C(=O)N[C@@H](CC(N)=O)C(=O)N[C@H]2C(=O)N[C@H]3C(=O)N[C@H](C(=O)N[C@H](C(=O)O)c4cc(O)cc(O)c4-c4cc3ccc4O)[C@H](O)c3ccc(c(Cl)c3)Oc3cc2cc(c3O[C@@H]2O[C@H](CO)[C@@H](O)[C@H](O)[C@H]2O[C@H]2C[C@](C)(N)[C@H](O)[C@H](C)O2)Oc2ccc(cc2Cl)[C@H]1O [vancomycin] |  | −0.398 to 0 |
